In US6864251B2, “Treatment of LTB4-mediated inflammatory disorders with optically-pure (R)-2,3-benzodiazepines” (Vela Pharmaceuticals, Inc., priority 2002, dated 2005):

How the values were obtained:
central BZ receptors = settings: cited from earlier work
peripheral BZ receptors = peripheral BZ receptors (Homo sapiens, UniProt P30536); settings: cited from earlier work
lymphocyte = settings: in vitro; cited from earlier work
IL-2 production = settings: in vitro; cited from earlier work
LTB4 receptor = LTB4 receptor (Cavia porcellus, UniProt H0VYV8); experiment: LTB4 binding assay, displacement of [3H]LTB4, guinea pig spleen membrane
LTB4 receptor, sequence (H0VYV8 1-348): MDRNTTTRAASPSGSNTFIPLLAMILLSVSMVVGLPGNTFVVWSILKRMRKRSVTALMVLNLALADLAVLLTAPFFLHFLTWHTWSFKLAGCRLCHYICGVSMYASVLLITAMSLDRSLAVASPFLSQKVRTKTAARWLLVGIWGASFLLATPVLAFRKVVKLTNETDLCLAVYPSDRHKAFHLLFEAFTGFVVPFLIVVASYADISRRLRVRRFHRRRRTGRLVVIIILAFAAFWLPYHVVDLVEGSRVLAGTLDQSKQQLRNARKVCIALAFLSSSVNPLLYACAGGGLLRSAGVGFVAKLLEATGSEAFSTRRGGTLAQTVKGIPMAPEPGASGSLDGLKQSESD
Description: Reactions were carried out in a phosphate buffer (pH 7.4) containing NaCl, MgCl2, EDTA, and bacitracin. The reaction volume of 150 μL containing 1.0 mg/mL of the Guinea pig spleen membrane preparation and 1 nM [^3H]LTB4, with or without a competitor, was incubated at 0-4° C. for 2 hours. Competitors included 2,3-benzodiazepines, and LTB4 as a control. The reaction was terminated by rapid vacuum filtration onto glass fiber filters. The filter was washed with cold buffer, dried and placed in a scintillation vial. Radioactivity trapped onto the filters was determined and compared to control values in order to ascertain any interactions of the test compound with the LTB4 binding site.

peripheral BZ receptors, sequence (P30536 whole entry): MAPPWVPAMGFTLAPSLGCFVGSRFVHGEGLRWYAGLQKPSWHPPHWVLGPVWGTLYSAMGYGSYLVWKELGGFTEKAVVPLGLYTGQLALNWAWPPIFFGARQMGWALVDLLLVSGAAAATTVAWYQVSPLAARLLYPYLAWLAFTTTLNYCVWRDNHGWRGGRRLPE

SMILES	Interaction with central BZ receptors (central BZ receptors)	Binding to peripheral BZ receptors (peripheral BZ receptors)	Mitogen-induced lymphocyte proliferation (lymphocyte)	IL-2 production (IL-2 production)	Ki (LTB4 receptor)
CCC1C(C)=NN=C(c2ccc(OC)c(OC)c2)c2cc(OC)c(OC)cc21 (racemic) [Racemic tofisopam, Racemic-1-(3,4-dimethoxyphenyl)-4-methyl-5-ethyl-7,8-dimethoxy-5H-2,3-benzodiazepine]	does not interact	binds only weakly	enhances	enhances	4.52 µM
CC[C@H]1C(C)=NN=C(c2ccc(OC)c(OC)c2)c2cc(OC)c(OC)cc21 [(R)-tofisopam, (R)-1-(3,4-dimethoxyphenyl)-4-methyl-5-ethyl-7,8-dimethoxy-5H-2,3-benzodiazepine]	–	–	–	–	0.444 µM
CC[C@@H]1C(C)=NN=C(c2ccc(OC)c(OC)c2)c2cc(OC)c(OC)cc21 [(S)-tofisopam, (S)-1-(3,4-dimethoxyphenyl)-4-methyl-5-ethyl-7,8-dimethoxy-5H-2,3-benzodiazepine]	–	–	–	–	76 µM
